Laboratory results from patent US9156801B2, “2-substituted oleanolic acid derivative, method preparing for same, and application thereof” (HANGZHOU BENSHENG PHARMACEUTICAL CO., LTD., priority 2011, dated 2015).
≈ marks a conversion by molar mass, not a printed value.

How the values were obtained:
Hep G2 cell line = experiment: solid tumor cell growth inhibition, MTT; type: cell-based, human; conditions: Homo sapiens
Method in brief: (§1)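 Compound-treated cultures (72 h, 37° C, 5% CO2, DMEM high glucose with 10% FBS) were compared with untreated wells assigned 0% inhibition, using MTT to gauge relative living cells; seeding was 4000 cells per well, 24 h before treatment.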

RPMI8226 cell line = experiment: multiple myeloma cell growth inhibition, MTT; type: cell-based; conditions: Homo sapiens, RPMI-8226
Method in brief: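 RPMI8226 cells (6000 per well) in RPMI 1640 with 10% FBS were exposed to several concentrations of compound for 72 h at 37° C and 5% CO2. Viable cells were quantified by MTT, with inhibition set to 0% in untreated controls.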

Becap37 cell line = experiment: solid tumor cell growth inhibition, MTT; type: cell-based; conditions: Homo sapiens
Method in brief: as §1

RKO cell line = experiment: solid tumor cell growth inhibition, MTT; type: cell-based; conditions: Homo sapiens, 72 h
Method in brief: as §1

A549 cell line = experiment: solid tumor cell growth inhibition, MTT; type: cell-based; conditions: Homo sapiens
Method in brief: as §1

SK-OV-3 cell line = experiment: solid tumor cell growth inhibition, MTT; type: cell-based; conditions: Homo sapiens
Method in brief: as §1

PANC-1 cell line = experiment: solid tumor cell growth inhibition, MTT; type: cell-based; conditions: Homo sapiens
Method in brief: as §1

CNE cell line = experiment: solid tumor cell growth inhibition, MTT; type: cell-based; conditions: Homo sapiens, 72 h
Method in brief: as §1

Hela cell line = experiment: solid tumor cell growth inhibition, MTT; type: cell-based; conditions: Homo sapiens, 72 h
Method in brief: as §1

CaES-17 cell line = experiment: solid tumor cell growth inhibition, MTT; type: cell-based; conditions: Homo sapiens, CaEs17
Method in brief: as §1

Hep-2 cell line = experiment: solid tumor cell growth inhibition, MTT; type: cell-based; conditions: Homo sapiens
Method in brief: as §1

U87 MG cell line = experiment: solid tumor cell growth inhibition, MTT; type: cell-based; conditions: Homo sapiens, U-87 MG, 72 h
Method in brief: as §1

PC-3 cell line = experiment: solid tumor cell growth inhibition, MTT; type: cell-based; conditions: Homo sapiens
Method in brief: as §1

MGC 803 cell line = experiment: solid tumor cell growth inhibition, MTT; type: cell-based; conditions: Homo sapiens
Method in brief: as §1

MG-63 cell line = experiment: solid tumor cell growth inhibition, MTT; type: cell-based; conditions: Homo sapiens
Method in brief: as §1

Jurkat cell line = experiment: leukemia cell growth inhibition, MTT; type: cell-based; conditions: Homo sapiens, 72 h
Method in brief: (§2)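 Leukemia cells (6000 per well) are grown in 1640 medium containing 10% fetal bovine serum, treated with several concentrations of test derivative, and incubated 72 hours at 37° C in 5% CO2. The relative viable count is then measured by MTT.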

NB4 cell line = experiment: leukemia cell growth inhibition, MTT; type: cell-based; conditions: Homo sapiens, NB-4
Method in brief: as §2

K562/adr cell line = experiment: leukemia cell growth inhibition, MTT; type: cell-based; conditions: Homo sapiens, 72 h
Method in brief: as §2

H9 cell line = experiment: leukemia cell growth inhibition, MTT; type: cell-based; conditions: Homo sapiens
Method in brief: as §2

Kasumi-1 cell line = experiment: leukemia cell growth inhibition, MTT; type: cell-based; conditions: Homo sapiens
Method in brief: as §2

[1] = 16 μg/mL compound, read-out: IR (cell proliferation inhibition rate)

`COC(=O)[C@]12CCC(C)(C)CC1C1=CCC3[C@@]4(C)CC(C(=O)NCCc5cccnc5)C(=O)C(C)(C)C4CC[C@@]3(C)[C@]1(C)CC2` (stereo partly shown) [BS-OA-027] gave an inhibition at 16 µg/mL (Hep G2 cell line; HepG2, 72 h, Hep G2, 16 μg/mL compound, 72 h, read-out: IR (cell proliferation inhibition rate)) of 51.4%, an IC50 (Hep G2 cell line; HepG2, Hep G2, 72 h) of 15.6 µg/mL (≈ 25.3 µM) and an inhibition at 16 µg/mL (RPMI8226 cell line; RPMI8226, 16 μg/mL compound, 72 h, read-out: IR (cell proliferation inhibition rate)) of 86.5%. It also gave an IC50 (RPMI8226 cell line; RPMI8226, 72 h) of 6.1 µg/mL (≈ 9.89 µM), an inhibition at 16 µg/mL (Becap37 cell line; Becap37, 16 μg/mL compound, 72 h, read-out: IR (cell proliferation inhibition rate)) of 34.3% and an IC50 (Becap37 cell line; Becap37, 72 h) greater than 16 µg/mL. It also gave an inhibition at 16 µg/mL (RKO cell line; [1]) of 46.8%, an IC50 (RKO cell line) of 16 µg/mL (≈ 25.9 µM) and an IC50 (A549 cell line; A549, 72 h) greater than 16 µg/mL. For the same compound, the inhibition at 16 µg/mL (A549 cell line; A549, 16 μg/mL compound, 72 h, read-out: IR (cell proliferation inhibition rate)) was 45.6%, the IC50 (SK-OV-3 cell line; SK-OV-3, 72 h) was 6.63 µg/mL (≈ 10.7 µM) and the inhibition at 16 µg/mL (SK-OV-3 cell line; SK-OV-3, 16 μg/mL compound, 72 h, read-out: IR (cell proliferation inhibition rate)) was 91.6%. The IC50 (PANC-1 cell line; PANC-1, 72 h) was greater than 16 µg/mL, the inhibition at 16 µg/mL (PANC-1 cell line; PANC-1, 16 μg/mL compound, 72 h, read-out: IR (cell proliferation inhibition rate)) was 36.9% and the inhibition at 16 µg/mL (CNE cell line; [1]) was 51.3%. The IC50 (CNE cell line) was 15.6 µg/mL (≈ 25.3 µM), the IC50 (Hela cell line; HeLa) was 10.8 µg/mL (≈ 17.4 µM) and the inhibition at 16 µg/mL (Hela cell line; Hela, 16 μg/mL compound, read-out: IR (cell proliferation inhibition rate)) was 62%. The inhibition at 16 µg/mL (CaES-17 cell line; CaES-17, 16 μg/mL compound, 72 h, read-out: IR (cell proliferation inhibition rate)) was 49.5%, the IC50 (CaES-17 cell line; CaES-17, 72 h) was 17 µg/mL (≈ 27.5 µM) and the IC50 (Hep-2 cell line; HEp-2, 72 h) was greater than 16 µg/mL. The inhibition at 16 µg/mL (Hep-2 cell line; Hep-2, 16 μg/mL compound, 72 h, read-out: IR (cell proliferation inhibition rate)) was 35.5%, the inhibition at 16 µg/mL (U87 MG cell line; [1]) was 48.7% and the IC50 (U87 MG cell line) was 16 µg/mL (≈ 25.9 µM). It also gave an IC50 (PC-3 cell line; PC-3, 72 h) of 7.79 µg/mL (≈ 12.6 µM), an inhibition at 16 µg/mL (PC-3 cell line; PC-3, 16 μg/mL compound, 72 h, read-out: IR (cell proliferation inhibition rate)) of 68.9% and an inhibition at 16 µg/mL (MGC 803 cell line; MGC 803, 16 μg/mL compound, 72 h, read-out: IR (cell proliferation inhibition rate)) of 80.1%. The IC50 (MGC 803 cell line; MGC 803, 72 h) was 9.96 µg/mL (≈ 16.1 µM), the IC50 (MG-63 cell line; MG-63, 72 h) was greater than 16 µg/mL and the inhibition at 16 µg/mL (MG-63 cell line; MG-63, 16 μg/mL compound, 72 h, read-out: IR (cell proliferation inhibition rate)) was 25.4%. For the same compound, the inhibition at 16 µg/mL (Jurkat cell line; [1]) was 83.4%, the IC50 (Jurkat cell line) was 9.85 µg/mL (≈ 16 µM) and the inhibition at 16 µg/mL (NB4 cell line; NB4, 16 μg/mL compound, 72 h, read-out: IR (cell proliferation inhibition rate)) was 93.8%. The IC50 (NB4 cell line; NB4, 72 h) was 4.57 µg/mL (≈ 7.41 µM), the IC50 (K562/adr cell line; K562/Adr) was 3.7 µg/mL (≈ 6 µM) and the inhibition at 16 µg/mL (K562/adr cell line; K562/adr, 16 μg/mL compound, read-out: IR (cell proliferation inhibition rate)) was 82.6%. For the same compound, the IC50 (H9 cell line; H9, 72 h) was 7.72 µg/mL (≈ 12.5 µM), the inhibition at 16 µg/mL (H9 cell line; H9, 16 μg/mL compound, 72 h, read-out: IR (cell proliferation inhibition rate)) was 92.5% and the inhibition at 16 µg/mL (Kasumi-1 cell line; Kasumi-1, 16 μg/mL compound, 72 h, read-out: IR (cell proliferation inhibition rate)) was 72.2%. The IC50 (Kasumi-1 cell line; Kasumi-1, 72 h) was 12.4 µg/mL (≈ 20.1 µM).
